This experiment has as its system FAAH. The experiment is described as follows: qRT-PCR gene expression of FAAH. Format: cell-based, human. The settings on record: HaCaT cells, half-IC50 dose, 24 h, vs. control. As for the experimental part:
The HaCaT cells were seeded into 6-well plates at a density of 4 × 10^4 per well, incubated overnight and then treated with the selected pCBs (CBG (6.0 µM), CBC (4.0 µM), THCV (9.0 µM) and CBGA (13.0 µM)) for 24 h. The cell pellets were collected and RT-PCR reactions were performed using the RevertAid H Minus First Strand cDNA Synthesis Kit. The relative abundance was assessed via RT quantitative PCR (RT-qPCR) using the SensiFAST SYBR Lo-ROX Kit in an Applied Biosystems 7500 Fast Real-Time PCR System (Life Technologies). To provide the precise quantification of the initial target in each PCR reaction, the amplification plot was examined, as well as the point of early log phase of the product accumulation, which was defined by assigning a fluorescence threshold above the background that was defined as the threshold cycle number or “Ct. Differences” in threshold cycle number that was used to quantify the relative amount of the PCR targets that were contained within each tube. After PCR, a dissociation curve (melting curve) was constructed in the range of 60 °C to 95 °C [62] to evaluate the specificity of the amplification products. The relative expression of the different amplicons was calculated using the delta–delta Ct (ΔΔCt) method and then converted into the relative expression ratio (2^−ΔΔCt) for statistical analysis. […]

Each structure is given as a SMILES string.

`CCCCCc1cc(O)c(C/C=C(\C)CCC=C(C)C)c(O)c1C(=O)O` [CBGA, cannabigerolic acid]: the “Gene Expression FAAH” value was “FAAH ↓+++” and the “gene expression of FAAH (in words)” value is recorded as “significantly reduced”.

The values above are taken from article PMC9145865, “Effects of Rare Phytocannabinoids on the Endocannabinoid System of Human Keratinocytes” (International Journal of Molecular Sciences, 2022).
